Results taken from US12247015B2, “3-amino-4H-benzo[e][1,2,4]thiadiazine 1,1-dioxide derivatives as inhibitors of MRGX2” (Solent Therapeutics, LLC, priority 2019, dated 2025).

The compounds below were run against hMRGX2 (CHO-K1 cells overexpressing MRGX2) (Homo sapiens (Human), UniProt Q96LB1) (assay: In vitro inhibition (EC50) of intracellular calcium flux, FLIPR Tetra, substance P stimulation). Conditions: stimulated with MRGX2 ligand substance P, FLIPR Calcium 5, read-out: hMRGX2 Cellular Potency (pEC50) (converted).
hMRGX2 (CHO-K1 cells overexpressing MRGX2), sequence (Q96LB1 whole entry): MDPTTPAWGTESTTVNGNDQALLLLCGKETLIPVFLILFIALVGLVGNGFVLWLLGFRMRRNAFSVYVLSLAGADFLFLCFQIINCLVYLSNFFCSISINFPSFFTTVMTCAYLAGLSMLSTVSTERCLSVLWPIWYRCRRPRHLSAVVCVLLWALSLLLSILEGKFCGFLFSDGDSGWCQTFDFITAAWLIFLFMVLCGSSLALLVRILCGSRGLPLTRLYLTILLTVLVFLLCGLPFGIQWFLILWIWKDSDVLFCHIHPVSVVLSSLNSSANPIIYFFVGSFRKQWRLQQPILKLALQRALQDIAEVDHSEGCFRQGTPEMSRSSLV
Format: cell-based
Description: In Vitro Inhibition (EC50) of Intracellular Calcium Flux
The release of intracellular calcium following stimulation of cells with substance P in the presence or absence of inhibitor compounds was measured using the FLIPR Tetra® system. CHO-K1 cells overexpressing MRGX2 were seeded into 384-well plates (Black clear bottom, TC-treated, Fisher #07-200-655) and incubated overnight to allow for cell attachment. Media was removed, and 1× loading buffer (FLIPR® Calcium 5 assay solution, Molecular Devices, per manufacturer specifications) was added. The plates were incubated at 37° C. for 30 minutes. Test compounds were added to cells (11-point dose response, 10 µM maximum concentration) and fluorescence measured (120 seconds, in real time) using the FLIPR Tetra® system. Immediately following, MRGX2 ligand substance P was added at a final concentration of 1 µM and fluorescence measured (120 seconds, in real time) using the FLIPR Tetra® system. The data for the examples are reported as pEC50.

Compared with O=S1(=O)N=C(NCc2ccncc2)Nc2c(-c3cc(F)cc(F)c3)cccc21 [Example 82, 5-(3,5-difluorophenyl)-3-((pyridin-4-ylmethyl)amino)-4H-benzo[e][1,2,4]thiadiazine 1,1-dioxide], O=S1(=O)N=C(NCc2ccccc2)Nc2c(-c3cc(F)cc(F)c3)cccc21 [Example 88, 3-(benzylamino)-5-(3,5-difluorophenyl)-4H-benzo[e][1,2,4]thiadiazine 1,1-dioxide] is 13-fold lower in EC50: 1.01 µM for the first, 0.0752 µM for the second.

Going from O=S1(=O)N=C(NCc2ccccn2)Nc2c(-c3cc(F)cc(F)c3)cccc21 [Example 83, 5-(3,5-difluorophenyl)-3-((pyridin-2-ylmethyl)amino)-4H-benzo[e][1,2,4]thiadiazine 1,1-dioxide] to CCC(CNC1=NS(=O)(=O)c2cccc(-c3cc(F)cc(F)c3)c2N1)OC (stereo not shown) [Example 87, 5-(3,5-difluorophenyl)-3-((2-methoxybutyl)amino)-4H-benzo[e][1,2,4]thiadiazine 1,1-dioxide], the EC50 falls from 0.423 µM to 0.24 µM (1.8-fold).

Going from CNC1=NS(=O)(=O)c2cccc(-c3cc(Cl)ccc3C#N)c2N1 [Example 90, 4-chloro-2-(3-(methylamino)-1,1-dioxido-4H-benzo[e][1,2,4]thiadiazin-5-yl)benzonitrile] to CNC1=NS(=O)(=O)c2cccc(-c3ccc(C)cc3Cl)c2N1 [Example 92, 5-(2-chloro-4-methylphenyl)-3-(methylamino)-4H-benzo[e][1,2,4]thiadiazine 1,1-dioxide], the EC50 falls from 0.973 µM to 0.0927 µM (10-fold).

First: CCc1ccccc1-c1cccc2c1NC(NC)=NS2(=O)=O [Example 91, 5-(2-ethylphenyl)-3-(methylamino)-4H-benzo[e][1,2,4]thiadiazine 1,1-dioxide]
Second: CNC1=NS(=O)(=O)c2cccc(-c3cccc(F)c3C)c2N1 [Example 95, 5-(3-fluoro-2-methylphenyl)-3-(methylamino)-4H-benzo[e][1,2,4]thiadiazine 1,1-dioxide]
The EC50 of the first is 4.3-fold lower: 0.0818 µM for the first, 0.35 µM for the second.

CNC1=NS(=O)(=O)c2cccc(-c3cc(F)ccc3Cl)c2N1 [Example 93, 5-(2-chloro-5-fluorophenyl)-3-(methylamino)-4H-benzo[e][1,2,4]thiadiazine 1,1-dioxide] and CNC1=NS(=O)(=O)c2cccc(-c3ccc(F)cc3Cl)c2N1 [Example 94, 5-(2-chloro-4-fluorophenyl)-3-(methylamino)-4H-benzo[e][1,2,4]thiadiazine 1,1-dioxide] are within 1.5-fold of each other in EC50: 0.181 µM for the first, 0.235 µM for the second.

CNC1=NS(=O)(=O)c2cccc(-c3cc(F)cc(F)c3F)c2N1 [Example 96, 3-(methylamino)-5-(2,3,5-trifluorophenyl)-4H-benzo[e][1,2,4]thiadiazine 1,1-dioxide] and CNC1=NS(=O)(=O)c2cc(C)cc(-c3cccc(F)c3Cl)c2N1 [Example 97, 5-(2-chloro-3-fluorophenyl)-7-methyl-3-(methylamino)-4H-benzo[e][1,2,4]thiadiazine 1,1-dioxide] are within 1.5-fold of each other in EC50: 0.598 µM for the first, 0.589 µM for the second.

First: Cc1cc(-c2cccc3c2NC(Nc2ccc(C(C)C)cc2)=NS3(=O)=O)n[nH]1 [Example 98, 3-((4-isopropylphenyl)amino)-5-(5-methyl-1H-pyrazol-3-yl)-4H-benzo[e][1,2,4]thiadiazine 1,1-dioxide]
Second: Cc1n[nH]cc1-c1cccc2c1NC(Nc1ccc(C(C)C)cc1)=NS2(=O)=O [Example 106, 3-((4-isopropylphenyl)amino)-5-(3-methyl-1H-pyrazol-4-yl)-4H-benzo[e][1,2,4]thiadiazine 1,1-dioxide]
The EC50 of the first is 4.1-fold higher: 0.289 µM for the first, 0.0701 µM for the second.

Going from CC(C)c1ccc(NC2=NS(=O)(=O)c3cccc(-c4cnn(C(F)F)c4)c3N2)cc1 [Example 99, 5-(1-(difluoromethyl)-1H-pyrazol-4-yl)-3-((4-isopropylphenyl)amino)-4H-benzo[e][1,2,4]thiadiazine 1,1-dioxide] to CC(C)c1ccc(NC2=NS(=O)(=O)c3cccc(-c4cnn(C5CC(F)(F)C5)c4)c3N2)cc1 [Example 104, 5-(1-(3,3-difluorocyclobutyl)-1H-pyrazol-4-yl)-3-((4-isopropylphenyl)amino)-4H-benzo[e][1,2,4]thiadiazine 1,1-dioxide], the EC50 falls from 0.76 µM to 0.0891 µM (8.5-fold).

CC(C)c1ccc(NC2=NS(=O)(=O)c3cccc(-n4cccn4)c3N2)cc1 [Example 100, 3-((4-isopropylphenyl)amino)-5-(1H-pyrazol-1-yl)-4H-benzo[e][1,2,4]thiadiazine 1,1-dioxide] and CC(C)c1ccc(NC2=NS(=O)(=O)c3cccc(-c4ccn(C)n4)c3N2)cc1 [Example 108, 3-((4-isopropylphenyl)amino)-5-(1-methyl-1H-pyrazol-3-yl)-4H-benzo[e][1,2,4]thiadiazine 1,1-dioxide] are within 1.5-fold of each other in EC50: 0.766 µM for the first, 0.592 µM for the second.

Compared with CC(C)c1ccc(NC2=NS(=O)(=O)c3cccc(-c4cnn(C5COC5)c4)c3N2)cc1 [Example 101, 3-((4-isopropylphenyl)amino)-5-(1-(oxetan-3-yl)-1H-pyrazol-4-yl)-4H-benzo[e][1,2,4]thiadiazine 1,1-dioxide], Cc1cnccc1-c1cccc2c1NC(Nc1ccc(C(C)C)cc1)=NS2(=O)=O [Example 113, 3-((4-isopropylphenyl)amino)-5-(3-methylpyridin-4-yl)-4H-benzo[e][1,2,4]thiadiazine 1,1-dioxide] is 5.1-fold higher in EC50: 0.0457 µM for the first, 0.233 µM for the second.

Compared with CC(C)c1ccc(NC2=NS(=O)(=O)c3cccc(C(C)C)c3N2)cc1 [Example 110, 5-isopropyl-3-((4-isopropylphenyl)amino)-4H-benzo[e][1,2,4]thiadiazine 1,1-dioxide], CC(C)c1ccc(NC2=NS(=O)(=O)c3cccc(C4CCC4)c3N2)cc1 [Example 111, 5-cyclobutyl-3-((4-isopropylphenyl)amino)-4H-benzo[e][1,2,4]thiadiazine 1,1-dioxide] is 3-fold higher in EC50: 0.0352 µM for the first, 0.106 µM for the second.

CC(C)c1ccc(NC2=NS(=O)(=O)c3cccc(-c4ccccc4Cl)c3N2)cc1 [Example 112, 5-(2-chlorophenyl)-3-((4-isopropylphenyl)amino)-4H-benzo[e][1,2,4]thiadiazine 1,1-dioxide] and CC(C)c1ccc(NC2=NS(=O)(=O)c3cccc(-c4ccccc4Cl)c3N2)cn1 [Example 117, 5-(2-chlorophenyl)-3-((6-isopropylpyridin-3-yl)amino)-4H-benzo[e][1,2,4]thiadiazine 1,1-dioxide] are within 1.5-fold of each other in EC50: 0.165 µM for the first, 0.197 µM for the second.

First: Cc1nn(C)cc1-c1cccc2c1NC(Nc1cccc(C(C)C)c1)=NS2(=O)=O [Example 115, 5-(1,3-dimethyl-1H-pyrazol-4-yl)-3-((3-isopropylphenyl)amino)-4H-benzo[e][1,2,4]thiadiazine 1,1-dioxide]
Second: CC(C)c1ccc(NC2=NS(=O)(=O)c3cccc(C4CC4)c3N2)cn1 [Example 118, 5-cyclopropyl-3-((6-isopropylpyridin-3-yl)amino)-4H-benzo[e][1,2,4]thiadiazine 1,1-dioxide]
The EC50 of the first is 6.9-fold lower: 0.0548 µM for the first, 0.378 µM for the second.

O=S1(=O)N=C(NCc2ncccc2F)Nc2c(C3CC3)cccc21 [Example 119, 5-cyclopropyl-3-(((3-fluoropyridin-2-yl)methyl)amino)-4H-benzo[e][1,2,4]thiadiazine 1,1-dioxide] and COc1cccc(CNC2=NS(=O)(=O)c3cccc(C4CC4)c3N2)n1 [Example 120, 5-cyclopropyl-3-(((6-methoxypyridin-2-yl)methyl)amino)-4H-benzo[e][1,2,4]thiadiazine 1,1-dioxide] are within 1.5-fold of each other in EC50: 0.484 µM for the first, 0.578 µM for the second.
